24 molecules from ChEMBL document CHEMBL1124815, “Novel piperidine derivatives. Synthesis and anti-acetylcholinesterase activity of 1-benzyl-4-[2-(N-benzoylamino)ethyl]piperidine derivatives” (J Med Chem, 1990) can be followed below.

For one assay, the target named is T1, Acetylcholinesterase (Mus musculus, UniProt P21836).
T1 sequence (P21836 whole entry): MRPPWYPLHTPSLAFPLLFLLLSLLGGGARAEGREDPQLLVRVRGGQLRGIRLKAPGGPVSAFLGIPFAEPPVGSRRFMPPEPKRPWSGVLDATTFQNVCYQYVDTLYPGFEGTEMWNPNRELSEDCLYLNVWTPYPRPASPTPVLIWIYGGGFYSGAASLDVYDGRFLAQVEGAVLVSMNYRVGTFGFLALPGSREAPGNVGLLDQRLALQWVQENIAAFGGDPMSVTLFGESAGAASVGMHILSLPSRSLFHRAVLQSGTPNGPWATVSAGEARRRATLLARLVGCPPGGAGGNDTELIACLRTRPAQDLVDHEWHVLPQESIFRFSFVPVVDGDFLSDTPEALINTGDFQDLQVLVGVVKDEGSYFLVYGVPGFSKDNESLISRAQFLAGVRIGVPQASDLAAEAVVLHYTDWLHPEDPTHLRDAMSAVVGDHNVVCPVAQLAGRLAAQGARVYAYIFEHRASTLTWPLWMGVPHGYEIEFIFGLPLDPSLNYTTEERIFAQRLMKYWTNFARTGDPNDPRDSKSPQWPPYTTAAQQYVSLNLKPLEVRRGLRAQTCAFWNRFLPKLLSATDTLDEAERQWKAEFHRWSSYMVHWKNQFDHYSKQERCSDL
The assay is described as follows: Inhibitory activity against mouse brain Acetylcholinesterase.

The target in assay [1] is T2, Acetylcholinesterase (Mus musculus) (UniProt P21836).
T2 sequence (whole entry): T1 sequence (P21836 whole entry)
Nature of the assay: Reversibility of Acetylcholinesterase enzyme inhibition by compound (0.27 uM) after dialysis.

The target in assay [2] is T2, Acetylcholinesterase (Mus musculus). Nature of the assay: Reversibility of Acetylcholinesterase enzyme inhibition by compound (0.27 uM) before dialysis.
The target is the same in assay [3]. Nature of the assay: Reversibility of Acetylcholinesterase enzyme inhibition by compound (0.91 uM) after dialysis.
Assay [4] shares this target. Nature of the assay: Reversibility of Acetylcholinesterase enzyme inhibition by compound (0.91 uM) before dialysis.
The target is the same in assay [5]. The assay is described as follows: Reversibility of Acetylcholinesterase enzyme inhibition by compound (91 uM) after dialysis.
Assay [6] shares this target. The assay is described as follows: Reversibility of Acetylcholinesterase enzyme inhibition by compound (91 uM) before dialysis.
A further assay concerns the target Butyrylcholinesterase (Rattus norvegicus, UniProt Q9JKC1). The assay is described as follows: Inhibitory activity against rat butyrylcholinesterase enzyme (BuChE).

Butyrylcholinesterase, sequence (Q9JKC1 whole entry): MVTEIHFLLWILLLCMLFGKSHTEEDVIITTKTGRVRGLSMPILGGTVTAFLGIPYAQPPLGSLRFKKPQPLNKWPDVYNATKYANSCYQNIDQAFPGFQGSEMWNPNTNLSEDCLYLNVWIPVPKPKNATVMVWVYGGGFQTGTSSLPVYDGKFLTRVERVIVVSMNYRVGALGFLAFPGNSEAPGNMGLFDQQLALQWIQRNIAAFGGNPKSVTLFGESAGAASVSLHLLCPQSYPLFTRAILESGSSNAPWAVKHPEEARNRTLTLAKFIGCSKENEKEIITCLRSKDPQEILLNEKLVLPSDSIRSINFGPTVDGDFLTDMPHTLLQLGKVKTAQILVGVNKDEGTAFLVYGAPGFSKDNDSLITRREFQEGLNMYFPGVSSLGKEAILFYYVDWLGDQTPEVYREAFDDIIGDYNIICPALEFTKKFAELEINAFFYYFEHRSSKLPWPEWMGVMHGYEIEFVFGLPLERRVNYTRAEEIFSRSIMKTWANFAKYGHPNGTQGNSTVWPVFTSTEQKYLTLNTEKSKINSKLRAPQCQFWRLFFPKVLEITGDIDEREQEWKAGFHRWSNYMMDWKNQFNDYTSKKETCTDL

In turn, `O=C(NCCC1CCN(Cc2ccccc2)CC1)c1ccncc1` displayed an IC50 against Acetylcholinesterase of 39 nM.
At Acetylcholinesterase, `O=C(NCCC1CCN(Cc2ccccc2)CC1)C1CCCCC1` yielded an IC50 of 1600 nM.
Turning to `O=C(NCCC1CCN(Cc2ccccc2)CC1)c1cccc([N+](=O)[O-])c1`, the IC50 on Acetylcholinesterase worked out at 230 nM. Against the preceding molecule, the IC50 is about 7-fold lower.
Molecule `Cc1ccccc1C(=O)NCCC1CCN(Cc2ccccc2)CC1` had an IC50 against Acetylcholinesterase of 1000 nM.
On Acetylcholinesterase, `O=C(NCCC1CCN(Cc2ccccc2)CC1)c1ccc(F)cc1` returned an IC50 of 85 nM.
On the same count and under the same terms, in the case of `O=C(c1ccc(S(=O)(=O)Cc2ccccc2)cc1)N(CCC1CCN(Cc2ccccc2)CC1)c1ccccc1` it was 0.6 nM; in that of `O=C(c1ccccc1)N(CCC1CCN(Cc2ccccc2)CC1)c1ccccc1`, 35 nM.
At Acetylcholinesterase, `O=C(NCCC1CCN(Cc2ccccc2)CC1)c1cc[n+]([O-])cc1` displayed an IC50 of 155 nM.
On the same count and under the same terms, in the case of `O=C(NCCC1CCN(Cc2ccccc2)CC1)c1ccccc1[N+](=O)[O-]` it was 880 nM; in that of `O=C(NCCC1CCN(Cc2ccccc2)CC1)c1ccc(S(=O)(=O)Cc2ccccc2)cc1`, 29 nM; in that of `O=Cc1ccc(C(=O)NCCC2CCN(Cc3ccccc3)CC2)cc1`, 120 nM.
In turn, `c1ccc(CNCCC2CCN(Cc3ccccc3)CC2)cc1` displayed an IC50 at Acetylcholinesterase of 46000 nM.
Take `O=C(NCCC1CCN(Cc2ccccc2)CC1)c1cccnc1`: the IC50 against Acetylcholinesterase turned out to be 69 nM.
In the case of `CCN(CCC1CCN(Cc2ccccc2)CC1)C(=O)c1ccc(S(=O)(=O)Cc2ccccc2)cc1`, 0.3 nM corresponded to half-maximal inhibition at Acetylcholinesterase (IC50).
At Acetylcholinesterase, `O=C(NCCC1CCN(Cc2ccccc2)CC1)c1ccccn1` showed an IC50 of 800 nM.
On Acetylcholinesterase, `O=C(CCCC1CCN(Cc2ccccc2)CC1)c1ccccc1` had an IC50 of 530 nM.
Same read-out and setting: with `CCN(CCC1CCN(Cc2ccccc2)CC1)C(=O)c1ccccc1` the figure was 130 nM; with `CC(=O)c1ccc(C(=O)NCCC2CCN(Cc3ccccc3)CC2)cc1`, 51 nM; with `Cc1cccc(C(=O)NCCC2CCN(Cc3ccccc3)CC2)c1`, 470 nM.
On to `CN(CCC1CCN(Cc2ccccc2)CC1)C(=O)c1ccc(S(=O)(=O)Cc2ccccc2)cc1`, for which the Reversibility was found to be 17.7 in assay [1]; 9.1 in assay [2]; 17.8 in assay [3]; 5.42 in assay [4]; 16.5 in assay [5]; 2.59 in assay [6]. At Butyrylcholinesterase, this molecule came in with an IC50 of 10100 nM.
With `O=C(NCCC1CCN(Cc2ccccc2)CC1)c1ccc(Cl)cc1`, the IC50 against Acetylcholinesterase came to 180 nM.
As for `COc1ccc(C(=O)NCCC2CCN(Cc3ccccc3)CC2)cc1`, at Acetylcholinesterase, the IC50 is 88 nM.
`O=C(c1ccccc1)N(CCC1CCN(Cc2ccccc2)CC1)Cc1ccccc1` showed an IC50 at Acetylcholinesterase of 940 nM.
For the molecule `Cc1ccc(C(=O)NCCC2CCN(Cc3ccccc3)CC2)cc1`, on Acetylcholinesterase, the IC50 is 180 nM. This IC50 lies about 5.2-fold lower than the previous one.
